Assay results taken from the supplement of paper PMC13380429.

Columns and labels:
Conditions in all cases: 72 h
Vero E6 [1] = assay: drug sensitivity score (DSS) for viability; higher = more toxic; extreme values may be limits of the assay
U2OS [2] = assay: as above
Calu-3 [3] = assay: as above
Caco-2 [4] = assay: as above
HepG2 [5] = assay: as above
Vero E6 [6] = assay: relative viability EC50 (midpoint between 100% and the lowest measured viability); higher = less toxic
Calu-3 [7] = assay: as above
Vero E6 [8] = assay: cell viability relative to DMSO; higher = less toxic
U2OS [9] = assay: as above
Calu-3 [10] = assay: as above
Caco-2 [11] = assay: as above
HepG2 [12] = assay: as above
HepG2 [13] = assay: relative viability EC50 (midpoint between 100% and the lowest measured viability); higher = less toxic
Caco-2 [14] = assay: as above

Row | Compound | drug sensitivity score (Vero E6 [1]) | drug sensitivity score (U2OS [2]) | drug sensitivity score (Calu-3 [3]) | drug sensitivity score (Caco-2 [4]) | drug sensitivity score (HepG2 [5]) | relative viability EC50 (Vero E6 [6]) | relative viability EC50 (Calu-3 [7]) | cell viability (Vero E6 [8]; 1 nM) | cell viability (Vero E6 [8]; 10 nM) | cell viability (Vero E6 [8]; 100 nM) | cell viability (Vero E6 [8]; 1000 nM) | cell viability (Vero E6 [8]; 10000 nM) | cell viability (U2OS [9]; 1 nM) | cell viability (U2OS [9]; 10 nM) | cell viability (U2OS [9]; 100 nM) | cell viability (U2OS [9]; 1000 nM) | cell viability (U2OS [9]; 10000 nM) | cell viability (Calu-3 [10]; 1 nM) | cell viability (Calu-3 [10]; 10 nM) | cell viability (Calu-3 [10]; 100 nM) | cell viability (Calu-3 [10]; 1000 nM) | cell viability (Calu-3 [10]; 10000 nM) | cell viability (Caco-2 [11]; 1 nM) | cell viability (Caco-2 [11]; 10 nM) | cell viability (Caco-2 [11]; 100 nM) | cell viability (Caco-2 [11]; 1000 nM) | cell viability (Caco-2 [11]; 10000 nM) | cell viability (HepG2 [12]; 1 nM) | cell viability (HepG2 [12]; 10 nM) | cell viability (HepG2 [12]; 100 nM) | cell viability (HepG2 [12]; 1000 nM) | cell viability (HepG2 [12]; 10000 nM) | relative viability EC50 (HepG2 [13]) | relative viability EC50 (Caco-2 [14])
1 | C=CC(=O)Nc1ccc2ncnc(Nc3cccc(Br)c3)c2c1 | 13.6 | 3 | 21 | 6.7 | 2.7 | 0.287 µM | 0.0229 µM | 96.8% | 89.6% | 71% | 50.7% | 19.7% | 96.8% | 107% | 93% | 87.9% | 62.8% | 96% | 79.1% | 46.5% | 32.9% | 35.4% | 83.2% | 86.7% | 92% | 71% | 70.6% | 100% | 98.7% | 95.2% | 93.6% | 65% |  | 
2 | CCCCC/N=c1\ccn(Cc2ccccc2)c2ccccc12 | 0 | 2.1 | 1.4 | 2 | 4.5 | > 10 µM |  | 94.9% | 100% | 90.6% | 99.2% | 94.2% | 101% | 94.4% | 100% | 97.5% | 64.3% | 97% | 98.2% | 96.1% | 104% | 65.5% | 93.3% | 94.9% | 103% | 98.5% | 63% | 96.3% | 99.3% | 96% | 94.3% | 33.9% | 2.46 µM | 
3 | CCOC(=O)c1ncc2[nH]c3ccc(OCc4ccccc4)cc3c2c1COC | 0.3 | 3.1 | 1 | 4.3 | 9 | > 10 µM |  | 91.9% | 97.3% | 87.9% | 93.5% | 85% | 96% | 94.9% | 99% | 90.9% | 64.7% | 110% | 89.2% | 96.6% | 104% | 70.9% | 99.8% | 97% | 90.6% | 79.1% | 63.7% | 102% | 105% | 101% | 69.5% | 14.1% | 1.27 µM | 
4 | CNS(=O)(=O)Nc1nccc(Cc2c(C)c3ccc(Oc4ncccn4)cc3oc2=O)c1F | 10.9 | 2.5 | 13.1 | 6.7 | 23.5 |  | 0.116 µM | 94.6% | 92.9% | 75.4% | 57% | 50.3% | 98.2% | 97.9% | 94.3% | 85.7% | 70.8% | 105% | 96% | 70.8% | 50.1% | 40.8% | 99.8% | 89.4% | 82.9% | 73.4% | 62.5% | 101% | 91.8% | 38.3% | 23.8% | 13.8% | 0.0515 µM | 
5 | N#Cc1ccc(Cn2cncc2CN2CCN(c3cccc(Cl)c3)C(=O)C2)cc1 | 0.2 | 1.5 | 2.1 | 0.3 | 3.8 | > 10 µM |  | 107% | 102% | 95.4% | 99.9% | 85.5% | 96.1% | 104% | 98.4% | 99.2% | 68.7% | 104% | 88.2% | 87.1% | 96.4% | 67.5% | 102% | 106% | 107% | 97.2% | 87% | 108% | 100% | 107% | 93.3% | 49.9% | 2.09 µM | > 10 µM
6 | O=C(Nc1ccc(S(=O)(=O)Nc2nccs2)cc1)C(c1ccccc1)c1ccccc1 |  |  |  | 0 | 0 |  |  |  |  |  |  |  |  |  |  |  |  |  |  |  |  |  | 105% | 101% | 113% | 99% | 103% | 104% | 105% | 103% | 110% | 95.3% | > 10 µM | > 10 µM
7 | Nc1nc(O)c2nc(Br)n([C@@H]3O[C@@H]4COP(=O)(O)O[C@H]4[C@H]3O)c2n1 [8-bromo-cGMP] |  |  | 0 |  | 0 |  | > 10 µM |  |  |  |  |  |  |  |  |  |  | 105% | 94.3% | 107% | 90.5% | 113% |  |  |  |  |  | 101% | 103% | 94.6% | 110% | 108% | > 10 µM | 
8 | O=C(O)Cc1cc2ccccc2nc1C(=O)O [CCMQ] |  |  |  | 0 | 0 |  |  |  |  |  |  |  |  |  |  |  |  |  |  |  |  |  | 106% | 111% | 103% | 98.2% | 98.4% | 107% | 110% | 95.6% | 109% | 96.9% | > 10 µM | > 10 µM
9 | Cc1nc(N)sc1-c1ccnc(Nc2ccc(N3CCOCC3)cc2)n1 [CYC116] | 5.1 | 4.1 | 0.7 | 1.7 | 7.2 |  | > 10 µM | 100% | 103% | 99% | 80.8% | 51.6% | 104% | 102% | 103% | 89.6% | 53.7% | 104% | 109% | 101% | 105% | 75.5% | 99.3% | 87.4% | 98.8% | 87.7% | 75.1% | 97.9% | 106% | 97.9% | 77.8% | 28.4% | 1.38 µM | > 10 µM
10 | CC(=O)[C@@]1(O)CC[C@H]2[C@@H]3C=C(Cl)C4=CC(=O)[C@@H]5C[C@@H]5[C@]4(C)[C@H]3CC[C@@]21C [CYPROTERONE] | 0 |  | 0 | 0 |  | > 10 µM | > 10 µM | 101% | 107% | 99.5% | 104% | 94.9% |  |  |  |  |  | 99.5% | 101% | 103% | 86.6% | 97.4% | 106% | 89.5% | 112% | 102% | 95% |  |  |  |  |  |  | > 10 µM
11 | COC(=O)[C@H](CC(C)C)NC(=O)c1ccc(NC[C@@H](N)CS)cc1-c1cccc2ccccc12 [GGTI-298] | 0.9 | 2.9 | 0 | 1 | 0 | > 10 µM | > 10 µM | 105% | 110% | 104% | 86.3% | 92.7% | 95.3% | 97.4% | 92.7% | 94.3% | 60.9% | 93.1% | 104% | 88.8% | 100% | 93.7% | 92.3% | 100% | 95.2% | 98.8% | 75.9% | 90.4% | 106% | 101% | 93.8% | 100% | > 10 µM | > 10 µM
12 | N[C@@H](CS)C(=O)O [L-cysteine] | 0 | 0 | 0 |  | 0.2 |  |  |  |  |  |  |  |  |  |  |  |  |  |  |  |  |  |  |  |  |  |  |  |  |  |  |  |  | 
13 | Cn1cnc(-c2cc3nccc(Oc4ccc(NC(=S)NC(=O)Cc5ccccc5)cc4F)c3s2)c1 [MGCD-265] | 0.6 | 2 | 3.7 | 3.5 | 0.8 | > 10 µM |  | 106% | 106% | 103% | 104% | 77.3% | 102% | 95.9% | 103% | 96.5% | 67.3% | 96.6% | 93.1% | 100% | 86.9% | 62.3% | 97% | 99.8% | 98.3% | 84% | 63.6% | 103% | 92.7% | 97.6% | 97.9% | 80.6% | > 10 µM | 
14 | Oc1cccc(-c2nc(N3CCOCC3)c3oc4ncccc4c3n2)c1 [PI-103] | 11 | 5.6 | 5.1 | 13.1 | 5.3 |  |  | 98.3% | 96.2% | 87.9% | 50.5% | 53% | 103% | 100% | 97% | 69.4% | 76.6% | 105% | 95.1% | 81.9% | 84.1% | 53.6% | 100% | 96.9% | 81.2% | 42.4% | 49.9% | 98.8% | 104% | 99.7% | 70.9% | 62% |  | 0.14 µM
15 | O=C(CBr)N1CC([N+](=O)[O-])([N+](=O)[O-])C1 [RRx-001] | 0 |  | 0 | 0 | 0 | > 10 µM | > 10 µM | 106% | 106% | 99.6% | 102% | 102% |  |  |  |  |  | 101% | 91.6% | 116% | 100% | 100% | 105% | 98.3% | 113% | 104% | 105% | 102% | 114% | 109% | 106% | 94.8% | > 10 µM | > 10 µM
16 | COCCOCCOc1ccc(C2=N[C@@](C)(C(=O)O)CS2)c(O)c1 [SP-420] | 0 | 1.8 | 0 | 3 | 1.1 | > 10 µM | > 10 µM | 95% | 98.5% | 98.3% | 105% | 100% | 103% | 99.5% | 108% | 98.5% | 65.4% | 95.1% | 102% | 103% | 95.5% | 91.4% | 91.5% | 92.1% | 94.1% | 96% | 54% | 99.8% | 94.7% | 93% | 102% | 70.6% |  | 
17 | CCC(=O)O[C@H]1CC[C@H]2[C@@H]3CCC4=CC(=O)CC[C@]4(C)[C@H]3CC[C@]12C [TESTOSTERONE PROPIONATE] | 0 | 0 |  |  | 0 |  |  |  |  |  |  |  |  |  |  |  |  |  |  |  |  |  |  |  |  |  |  |  |  |  |  |  |  | 
